molecular target: T1, GSNOR (Homo sapiens, UniProt P11766); experiment: GSNOR assay (in vitro inhibition of GSNOR activity, NADH absorbance at 340 nm); type: biochemical; conditions: 100 mM NaPO4 pH 7.4, 0.240 mM GSNO, 0.300 mM NADH, 0.5 μg/mL GSNO Reductase, 1% DMSO, 25° C.; read-out: IC50 (GSNOR inhibitor activity)
T1 construct: made in house; host or cells: E. coli (arabinose-induced)
Description: Various compounds were tested in vitro for their ability to inhibit GSNOR activity.
GSNOR expression and purification is described in Biochemistry 2000, 39, 10720-10729.
Pre-cultures were grown from stabs of a GSNOR glycerol stock in 2XYT media containing 100 ug/ml ampicillin after an overnight incubation at 37° C. Cells were then added to fresh 2XYT (4 L) containing ampicillin and grown to an OD (A600) of 0.6-0.9 at 37° C. before induction. GSNOR expression was induced with 0.1% arabinose in an overnight incubation at 20° C.
E. coli cell paste was lysed by nitrogen cavitation and the clarified lysate purified by Ni affinity chromatography on an AKTA FPLC (Amersham Pharmacia). The column was eluted in 20 mM Tris pH 8.0/250 mM NaCl with a 0-500 mM imidazole gradient. Eluted GSNOR fractions containing the Smt-GSNOR fusion were digested overnight with Ulp-1 at 4° C. to remove the affinity tag then re-run on the Ni column under the same conditions. GSNOR was recovered in the flowthrough fraction and for crystallography is further purified by Q-Sepharose and Heparin flowthrough chromatography in 20 mM Tris pH 8.0, 1 mM DTT, 10 uM ZnSO4.
GSNO and enzyme/NADH Solutions are made up fresh each day. The solutions are filtered and allowed to warm to room temperature. GSNO solution: 100 mM NaPO4 (pH 7.4), 0.480 mM GSNO. 396 μL of GSNO Solution is added to a cuvette followed by 8 μL of test compound in DMSO (or DMSO only for full reaction control) and mixed with the pipette tip. Compounds to be tested are made up at a stock concentration of 10 mM in 100% DMSO. 2 fold serial dilutions are done in 100% DMSO. 8 μL of each dilution are added to an assay so that the final concentration of DMSO in the assay is 1%. The concentrations of compounds tested range from 100 to 0.003 μM. Enzyme/NADH solution: 100 mM NaPO4 (pH 7.4), 0.600 mM NADH, 1.0 μg/mL GSNO Reductase. 396 μL of the Enzyme/NADH solution is added to the cuvette to start the reaction. The cuvette is placed in the Cary 3E UV/Visible Spectrophotometer and the change in 340 nm absorbance/min at 25° C. is recorded for 3 minutes. The assays are done in triplicate for each compound concentration. IC50's for each compound are calculated using the standard curve analysis in the Enzyme Kinetics Module of SigmaPlot.
Final assay conditions: 100 mM NaPO4, pH 7.4, 0.240 mM GSNO, 0.300 mM NADH, 0.5 μg/mL GSNO Reductase, and 1% DMSO. Final volume: 800 μL/cuvette.

T1 sequence (P11766 whole entry): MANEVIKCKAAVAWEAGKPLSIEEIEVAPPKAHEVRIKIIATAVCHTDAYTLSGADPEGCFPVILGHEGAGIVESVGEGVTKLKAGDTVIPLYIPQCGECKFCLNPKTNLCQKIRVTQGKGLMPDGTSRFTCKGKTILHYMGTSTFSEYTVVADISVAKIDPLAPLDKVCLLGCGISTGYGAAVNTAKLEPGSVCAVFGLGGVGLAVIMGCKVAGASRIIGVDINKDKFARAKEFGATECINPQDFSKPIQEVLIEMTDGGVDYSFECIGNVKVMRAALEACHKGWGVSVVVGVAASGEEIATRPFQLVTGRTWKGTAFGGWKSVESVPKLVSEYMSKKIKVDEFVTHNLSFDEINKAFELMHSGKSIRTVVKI

IC50, < 1000 nM:
COc1ccc(-c2csc(CCC(=O)O)c2-c2ccc(C(N)=O)cc2C)cc1 [Example 1, 3-(3-(4-carbamoyl-2-methylphenyl)-4-(4-methoxyphenyl)thiophen-2-yl)propanoic acid]
COc1cc(Cl)ccc1-c1csc(CCC(=O)O)c1-c1ccc(C(N)=O)cc1 [Example 2, 3-(3-(4-carbamoylphenyl)-4-(4-chloro-2-methoxyphenyl)thiophen-2-yl)propanoic acid]
COc1cc(Cl)ccc1-c1csc(CCC(=O)O)c1-c1ccc(O)cc1 [Example 4, 3-(4-(4-chloro-2-methoxyphenyl)-3-(4-hydroxyphenyl)thiophen-2-yl)propanoic acid]
Cc1cc(C(N)=O)ccc1-c1c(-c2ccc(-n3ccnc3C)cc2)csc1CCC(=O)O [Example 7, 3-(3-(4-carbamoyl-2-methylphenyl)-4-(4-(2-methyl-1H-imidazol-1-yl)phenyl)thiophen-2-yl)propanoic acid]
Cc1nccn1-c1ccc(-c2csc(CCC(=O)O)c2-c2ccc(C(N)=O)cc2)cc1 [Example 8, 3-(3-(4-carbamoylphenyl)-4-(4-(2-methyl-1H-imidazol-1-yl)phenyl)thiophen-2-yl)propanoic acid]
Cc1cc(NS(C)(=O)=O)ccc1-c1c(-c2ccc(-n3ccnc3C)cc2)csc1CCC(=O)O [Example 9, 3-(4-(4-(2-methyl-1H-imidazol-1-yl)phenyl)-3-(2-methyl-4-(methylsulfonamido)phenyl)thiophen-2-yl)propanoic acid]
Cc1cc(C(N)=O)ccc1-c1c(-c2ccc(-n3ccnc3C)s2)csc1CCC(=O)O [Example 11, 3-(4′-(4-carbamoyl-2-methylphenyl)-5-(2-methyl-1H-imidazol-1-yl)-2,3′-bithiophen-5′-yl)propanoic acid]
Cc1cc(NS(C)(=O)=O)ccc1-c1c(-c2ccc(-n3ccnc3C)s2)csc1CCC(=O)O [Example 12, 3-(5-(2-methyl-1H-imidazol-1-yl)-4′-(2-methyl-4-(methylsulfonamido)phenyl)-2,3′-bithiophen-5′-yl)propanoic acid]
Cc1cc(C(N)=O)ccc1-c1c(-c2ccc(Br)cc2)csc1CCC(=O)O [Example 13, 3-(4-(4-bromophenyl)-3-(4-carbamoyl-2-methylphenyl)thiophen-2-yl)propanoic acid]
COc1ccc(-c2scc(CCC(=O)O)c2-c2ccc(C(N)=O)cc2C)cc1 [Example 14, 3-(4-(4-carbamoyl-2-methylphenyl)-5-(4-methoxyphenyl)thiophen-3-yl)propanoic acid]

From US8859611B2, “Thiophene inhibitors of S-nitrosoglutathione reductase” (N30 Pharmaceuticals, Inc., priority 2009, dated 2014)
